Assay results as given in patent US20100249138A1, “MPZP: A SMALL MOLECULE CORTICOTROPIN-RELEASING FACTOR TYPE 1 RECEPTOR (CRF1) ANTOGONIST” (priority 2007, published 2010).
Entries after “also recorded” stand apart in the source; their conditions may differ.

Experiments:
[1] = tested on: nicotine self-administration; assay: Nicotine self-administration, extended (23 hour) or limited (1 hour) access, nicotine deprivation effect; format: in vivo, rat
Procedure: The apparatus and detailed procedures for both intravenous catheterization and self-administration of nicotine have been described previously [O'dell et al., Pharmacol. Biochem. Behay. (2007) 86:346-353]. Adult male Wistar rats (280 to 330 g) were first allowed to nose-poke for food and water in 23 hours sessions prior to and after recovery from surgical implantation of jugular catheters. Following acquisition of these operant responses, rats were allowed to self-administer nicotine (0.03 mg/kg/100 μl/1 s, free base, fixed ratio=1 lever-response, time out=20 seconds) under different paradigms. Rats were allowed to acquire nicotine self-administration during daily 1 hour, “short-access” sessions (ShA, n=10) for at least 10 days. The CRF1 antagonist MPZP (0, 5, 10, 20 mg/kg) was then administered using a Latin square design, with 1-2 intervening treatment-free days. After completion of Study B, rats were allowed to self-administer nicotine during daily 23 hours, “long-access” sessions (LgA, n=8) for at least 10 days. Then, they were allowed to respond on a lever for nicotine self-administration in 4 four-day cycles, each separated by three intervening days of abstinence in their home cage. MPZP was administered before the first session following each cycle of abstinence using a Latin square design.

CRF1 receptors = target: T1, CRF1 receptors (Rattus norvegicus, UniProt P35353); assay: CRF receptor autoradiography, rat brain sections, CRF1-rich regions; format: binding; parameters: from tissue
T1 sequence (P35353 24-415): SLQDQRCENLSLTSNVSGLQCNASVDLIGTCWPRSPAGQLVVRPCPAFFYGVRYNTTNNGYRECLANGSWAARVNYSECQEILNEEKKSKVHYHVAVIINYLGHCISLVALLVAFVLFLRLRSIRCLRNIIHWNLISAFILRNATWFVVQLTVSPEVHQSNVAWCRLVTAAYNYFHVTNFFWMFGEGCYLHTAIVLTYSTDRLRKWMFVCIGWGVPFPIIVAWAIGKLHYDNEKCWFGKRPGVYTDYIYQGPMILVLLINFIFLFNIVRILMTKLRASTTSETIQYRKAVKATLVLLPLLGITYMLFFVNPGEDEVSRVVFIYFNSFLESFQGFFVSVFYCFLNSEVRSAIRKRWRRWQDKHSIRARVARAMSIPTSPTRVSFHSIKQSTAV
Procedure: For CRF receptor autoradiography, brain tissue was sectioned coronally (20 μm) using a cryostat (−17° C.). Sections were mounted on Superfrost Plus+ charged glass slides (Fisher Scientific, Pittsburgh, Pa.), permitted to dry completely, and stored in airtight boxes at −80° C. until the day of autoradiography. Autoradiography was performed using standard procedures based on the previous characterization of [^125I]Tyr^0-sauvagine [Grigoriadis et al., Mol. Pharmacol. (1996) 50:679-686].
Slides containing triplicate adjacent brain sections were thawed to room temperature and permitted to dry completely. Each section then was outlined using a PAP pen (Calbiochem, San Diego, Calif.). Sections were incubated in assay buffer (DPBS with 10 mM MgCl2, 2 mM EGTA, 1 tablet/100 ml protease inhibitor, 0.15% bovine serum albumin) for 15 minutes to remove endogenous ligand. Slides then were incubated under one of four conditions: (1) 0.2 nM […] to determine total binding; (2) 0.2 nM radiolabeled sauvagine+1 μM R121919 (below)
to determine non-CRF1 (e.g., CRF2) receptor binding; (3) 0.2 nM radiolabeled sauvagine+3 μM MPZP to determine non-CRF1 (e.g., CRF2) receptor binding using the experimental compound under study; (4) 0.2 nM radiolabeled sauvagine+0.3 μM unlabeled D-Phe-CRF12-41, a subtype-nonspecific CRF receptor antagonist, to determine non-CRF1/CRF2 (e.g., nonspecific binding). […]

displacement of [125I]-Tyr0-sauvagine (CRF1-like binding) (CRF1 receptors; cerebral cortex, concentration printed 1 mM): displaces the majority
displacement of [125I]-Tyr0-sauvagine binding from CRF1-rich regions (CRF1 receptors; cortex and basolateral amygdala, 3 μM): displaced most
Structure (SMILES): COCCN(CCOC)c1cc(C)nc2c(-c3ccc(OC)cc3C)c(C)nn12 [MPZP, N,N-bis(2-methoxyethyl)-3-(4-methoxy-2-methylphenyl)-2,5-dimethyl-pyrazolo[1,5-a]pyrimidin-7-amine]
nicotine intake following abstinence ([1]; extended access (23 hour), 0, 5, 10, 20 mg/kg s.c., vs vehicle-treated): dose-dependently decreased
baseline nicotine self-administration responding ([1]; limited access to nicotine (1 hour), s.c.): had no effect; also recorded: lack of effect
